Assay results reported in US20070128217A1 (priority 2003, published 2007).

Tests used:
[1] = test system: antibodies in sera from SARS patients (sera 1a, 1b, 2, 6, 37, 62, London, SARS-yellow, SARS-green); format: binding, human; parameters: Binding of serum 6 to linear peptides of protein X1 of SARS-CoV Urbani / Binding of serum 37 to linear peptides of protein X1 of SARS-CoV Urbani / Binding of serum 6 to looped/cyclic peptide (PEPSCAN-ELISA) / Binding of serum 37 to looped/cyclic peptide (PEPSCAN-ELISA) / Binding of serum 37 to looped/cyclic peptides of protein X1 of SARS-CoV Urbani / Binding of serum 6 to linear peptides of protein X2 / Binding of serum 37 to linear peptides of protein X2 / Binding of serum 37 to looped/cyclic peptides of protein X2 of SARS-CoV Urbani / Binding of serum 6 to linear peptides of protein M of SARS-CoV Urbani / Binding of serum 37 to linear peptides of protein M of SARS-CoV Urbani / Binding of serum 6 to looped/cyclic peptides of protein M of SARS-CoV Urbani / Binding of serum 37 to looped/cyclic peptides of protein M of SARS-CoV Urbani / Binding of serum 6 to linear peptides of protein X3 of SARS-CoV Urbani / Binding of serum 37 to linear peptides of protein X3 of SARS-CoV Urbani / Binding of serum 37 to looped/cyclic peptides of protein X3 of SARS-CoV Urbani / Binding of serum 6 to linear peptides of protein X4 of SARS-CoV Urbani / Binding of serum 37 to linear peptides of protein X4 of SARS-CoV Urbani / Binding of serum 37 to looped/cyclic peptides of protein X4 of SARS-CoV Urbani / Binding of serum 6 to linear peptides of protein X5 of SARS-CoV Urbani / Binding of serum 37 to linear peptides of protein X5 of SARS-CoV Urbani / Binding of serum 37 to looped/cyclic peptides of protein X5 of SARS-CoV Urbani / Binding of serum 6 to linear peptides of protein N of SARS-CoV Urbani / Binding of serum 37 to linear peptides of protein N of SARS-CoV Urbani / Binding of serum 6 to linear peptide (PEPSCAN-ELISA) / Binding of serum 1a to looped/cyclic peptides of protein N of SARS-CoV Urbani / Binding of serum 1b to looped/cyclic peptides of protein N of SARS-CoV Urbani / Binding of serum 2 to looped/cyclic peptides of protein N of SARS-CoV Urbani / Binding of serum 6 to looped/cyclic peptides of protein N of SARS-CoV Urbani / Binding of serum 37 to looped/cyclic peptides of protein N of SARS-CoV Urbani / Binding of serum 62 to looped/cyclic peptides of protein N of SARS-CoV Urbani / Binding of serum London to looped/cyclic peptides of protein N of SARS-CoV Urbani / Binding of serum SARS-green to looped/cyclic peptides of protein N of SARS-CoV Urbani: unit not given here
[2] = test system: control sera (pooled serum of ten healthy LUMC hospital workers; commercial negative donor pooled serum from the Dutch bloodbank); format: binding, human; parameters: Binding of Control serum LUMC to linear peptides / Binding of Control serum Blood-bank to linear peptides / Binding of Control serum LUMC to looped peptides / Binding of Control Serum Blood-Bank to Looped peptides / Binding of Control serum LUMC to linear peptides of the protein M of SARS-CoV Urbani / Binding of Control serum Blood-bank to linear peptides of the protein M of SARS-CoV Urbani / Binding of Control serum LUMC to looped peptides of the protein M of SARS-CoV Urbani / Binding of Control Serum Blood-Bank to Looped peptides of the protein M of SARS-CoV Urbani: unit not given here
[3] = test system: rabbit serum obtained by immunizing a rabbit with the SARS-CoV strain Frankfurt 1; format: binding; parameters: Binding of a rabbit serum to linear peptides / Binding of a rabbit serum to looped peptides / Rabbit serum linear peptides / Rabbit serum looped peptides / Binding of a rabbit serum to linear peptides of protein N of SARS-CoV Urbani (Rabbit serum linear peptides) / Binding of a rabbit serum to looped/cyclic peptides of protein N of SARS-CoV Urbani (Rabbit serum looped peptides): unit not given here
[4] = test system: recombinant human anti-SARS-CoV antibody 03-018; format: binding; parameters: Binding of antibody 03-018 to linear peptides of the N protein of SARS-CoV Urbani / Binding of antibody 03-018 to looped/cyclic peptides of the N protein of SARS-CoV Urbani: unit not given here

| Sequence | Binding of serum 1a to linear peptides of protein N of SARS-CoV Urbani [1] | Binding of serum 1a to looped/cyclic peptides of protein N of SARS-CoV Urbani [1] | Binding of serum 1b to linear peptides of protein N of SARS-CoV Urbani [1] | Binding of serum 1b to looped/cyclic peptides of protein N of SARS-CoV Urbani [1] | Binding of serum 2 to linear peptides of protein N of SARS-CoV Urbani [1] | Binding of serum 2 to looped/cyclic peptides of protein N of SARS-CoV Urbani [1] | Binding of serum 6 to looped/cyclic peptides of protein N of SARS-CoV Urbani [1] | Binding of serum 37 to looped/cyclic peptides of protein N of SARS-CoV Urbani [1] | Binding of serum 62 to looped/cyclic peptides of protein N of SARS-CoV Urbani [1] | Binding of serum London to looped/cyclic peptides of protein N of SARS-CoV Urbani [1] | Binding of serum SARS-green to looped/cyclic peptides of protein N of SARS-CoV Urbani [1] | Binding of serum SARS-yellow to looped/cyclic peptides of protein N of SARS-CoV Urbani [1] | Binding of a rabbit serum to linear peptides of protein N of SARS-CoV Urbani (Rabbit serum linear peptides) [3] | Binding of a rabbit serum to looped/cyclic peptides of protein N of SARS-CoV Urbani (Rabbit serum looped peptides) [3] | Binding of antibody 03-018 to linear peptides of the N protein of SARS-CoV Urbani [4] | Binding of antibody 03-018 to looped/cyclic peptides of the N protein of SARS-CoV Urbani [4] | Binding of Control Serum Blood-Bank to Looped peptides [2] | Binding of Control serum Blood-bank to linear peptides [2] | Binding of Control serum LUMC to linear peptides [2] | Binding of Control serum LUMC to looped peptides [2] | further results |
| --- | --- | --- | --- | --- | --- | --- | --- | --- | --- | --- | --- | --- | --- | --- | --- | --- | --- | --- | --- | --- | --- |
| PAADMDDFSRQLQNS | 0.3 | 0.3 | 0.2 | 0.1 | 0.2 | 0.3 | 1.1 | 0.6 | 0.3 | 0.3 | 0.3 | 0.3 | 0.2 | 0.3 | 0.1 | 0.2 |  |  |  |  | Binding of serum 6 to linear peptides of protein N of SARS-CoV Urbani [1]: 0.6; Binding of serum 37 to linear peptides of protein N of SARS-CoV Urbani [1]: 0.8; Binding of serum 62 to linear peptides of protein N of SARS-CoV Urbani [1]: 0.7; Binding of serum London to linear peptides of protein N of SARS-CoV Urbani [1]: 0.6; Binding of serum SARS-green to linear peptides of protein N of SARS-CoV Urbani [1]: 0.3; Binding of serum SARS-yellow to linear peptides of protein N of SARS-CoV Urbani [1]: 0.5; Control Serum Blood-Bank Looped peptides [2]: 0.3; Control serum Blood-bank linear peptides [2]: 0.8; Control serum LUMC linear peptides [2]: 0.8; Control serum LUMC looped peptides [2]: 0.3 |
| PRWYFYYLGTGPEAS | 0.3 | 0.4 | 0.2 | 0.3 | 0.2 | 0.5 | 0.3 | 1.0 | 0.8 | 0.5 | 0.9 | 0.8 | 0.2 | 0.6 | 0.1 | 0.2 | 0.7 | 0.7 | 0.6 | 0.7 | Binding of serum 6 to linear peptides of protein N of SARS-CoV Urbani [1]: 0.2; Binding of serum 37 to linear peptides of protein N of SARS-CoV Urbani [1]: 0.9; Binding of serum 62 to linear peptides of protein N of SARS-CoV Urbani [1]: 0.7; Binding of serum London to linear peptides of protein N of SARS-CoV Urbani [1]: 0.5; Binding of serum SARS-green to linear peptides of protein N of SARS-CoV Urbani [1]: 0.5; Binding of serum SARS-yellow to linear peptides of protein N of SARS-CoV Urbani [1]: 0.6 |
| ALLLLDRLNQLESKV |  | 0.4 |  | 0.3 |  | 0.5 | 0.3 | 1.0 | 0.9 | 0.5 | 0.7 | 0.5 | 0.1 | 0.4 | 0.1 | 0.3 | 0.8 | 0.8 | 0.7 | 0.8 | Binding of serum 1a to linear peptide (PEPSCAN-ELISA) [1]: 0.2; Binding of serum 1b to linear peptide (PEPSCAN-ELISA) [1]: 0.1; Binding of serum 2 to linear peptide (PEPSCAN-ELISA) [1]: 0.2; Binding of serum 6 to linear peptide (PEPSCAN-ELISA) [1]: 0.1; Binding of serum 37 to linear peptide (PEPSCAN-ELISA) [1]: 0.7; Binding of serum 62 to linear peptide (PEPSCAN-ELISA) [1]: 0.4; Binding of serum London to linear peptide (PEPSCAN-ELISA) [1]: 0.6; Binding of serum SARS-green to linear peptide (PEPSCAN-ELISA) [1]: 0.2; Binding of serum SARS-yellow to linear peptide (PEPSCAN-ELISA) [1]: 0.5 |
| GSRGGSQASSRSSSR |  | 0.6 |  | 0.8 |  | 0.7 | 0.5 | 0.9 | 0.7 | 0.7 | 1.2 | 1.6 | 0.3 | 0.6 | 0.1 | 0.2 | 1.1 | 0.7 | 0.7 | 0.7 | Binding of serum 1a to linear peptide (PEPSCAN-ELISA) [1]: 0.3; Binding of serum 1b to linear peptide (PEPSCAN-ELISA) [1]: 0.1; Binding of serum 2 to linear peptide (PEPSCAN-ELISA) [1]: 0.3; Binding of serum 6 to linear peptide (PEPSCAN-ELISA) [1]: 0.4; Binding of serum 37 to linear peptide (PEPSCAN-ELISA) [1]: 0.7; Binding of serum 62 to linear peptide (PEPSCAN-ELISA) [1]: 0.8; Binding of serum London to linear peptide (PEPSCAN-ELISA) [1]: 0.5; Binding of serum SARS-green to linear peptide (PEPSCAN-ELISA) [1]: 0.2; Binding of serum SARS-yellow to linear peptide (PEPSCAN-ELISA) [1]: 0.8 |
